In patent publication US20250262201A1, “COMPOUNDS AND METHODS USEFUL FOR STABILIZING PHENYLALANINE HYDROXYLASE MUTATIONS” (Agios Pharmaceuticals, Inc., priority 2022, published 2025):

target: T1, human PAH with the R408W mutation (Homo sapiens, UniProt P00439, R408W); test: Cell Based Phenylalanine Flux Assay; set-up: scale not given here; conditions: A375 R408W cells, 24 hrs with compound, then 20 μM sepiapterin and 800 μM 13C9,15N-Phenylalanine for 4 hours; 13C-Tyrosine by LC-MS; average where tested multiple times
T1 construct: expressed in transfected cells
T1 sequence (P00439 1-452 R408W): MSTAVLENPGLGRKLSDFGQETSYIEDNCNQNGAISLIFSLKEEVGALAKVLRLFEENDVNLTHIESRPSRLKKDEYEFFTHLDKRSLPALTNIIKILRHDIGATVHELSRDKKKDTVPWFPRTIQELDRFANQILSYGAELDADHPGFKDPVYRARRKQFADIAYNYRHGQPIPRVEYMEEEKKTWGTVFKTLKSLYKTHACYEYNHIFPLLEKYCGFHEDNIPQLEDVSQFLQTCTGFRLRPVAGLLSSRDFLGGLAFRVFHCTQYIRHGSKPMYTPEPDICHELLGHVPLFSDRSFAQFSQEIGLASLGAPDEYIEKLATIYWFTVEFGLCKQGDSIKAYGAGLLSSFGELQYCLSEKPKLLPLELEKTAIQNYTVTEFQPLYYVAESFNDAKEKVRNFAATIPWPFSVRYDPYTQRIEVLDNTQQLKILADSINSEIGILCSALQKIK

| AC50 | Structure (SMILES) |
| --- | --- |
| E, E | O=C(CC1(O)CCC1)N1CCc2[nH]cnc2C1c1cn2ccccc2n1 (stereo not drawn) |

same assay, conditions: A375 R408W cells, 24 hrs with compound, then 20 μM sepiapterin and 800 μM 13C9,15N-Phenylalanine for 4 hours; 13C-Tyrosine by LC-MS; average where tested multiple times; read-out: AC50

| AC50 | Structure (SMILES) |
| --- | --- |
| > 5 µM | O=C(CCc1nnc(C(F)F)o1)N1CCc2[nH]cnc2C1c1cn2ccccc2n1 (stereo not drawn) |
| > 5 µM | O=C(Cc1nc(C(F)(F)F)cs1)N1CCc2[nH]cnc2C1c1cn2ccccc2n1 (stereo not drawn) |
| 1 to 5 µM | CC(C)(O)c1nc(C2CC2)c(C(=O)N2CCc3[nH]cnc3C2c2ccc3ccccc3n2)o1 (stereo not drawn) |
| > 5 µM | O=C(c1cnc(-c2ccccn2)o1)N1CCc2[nH]cnc2[C@@H]1c1cc2ccccc2nn1 (single isomer, unassigned) |

same assay, conditions: A375 cells expressing human R408W PAH; 24 hrs compound incubation; 13C-Tyrosine by LC-MS; average where tested multiple times; read-out: AC50

| AC50 | Structure (SMILES) |
| --- | --- |
| 1 to 5 µM | COc1ccc(-c2nnc(C(=O)N3C[C@H](C)c4[nH]cnc4[C@@H]3c3cc4ccccc4cn3)o2)nc1 [Example 515, ((4S,7S)-4-(isoquinolin-3-yl)-7-methyl-6,7-dihydro-1H-imidazo[4,5-c]pyridin-5(4H)-yl)(5-(5-methoxypyridin-2-yl)-1,3,4-oxadiazol-2-yl)methanone] |
| 1 to 5 µM | O=C(c1nnc(-c2cc(C(F)(F)F)ccn2)o1)N1CCc2[nH]cnc2[C@@H]1c1ncc2ccccc2n1 [Example 174, (R)-(4-(quinazolin-2-yl)-6,7-dihydro-1H-imidazo[4,5-c]pyridin-5(4H)-yl)(5-(4-(trifluoromethyl)pyridin-2-yl)-1,3,4-oxadiazol-2-yl)methanone] |
| < 0.5 µM | Cn1nc(Cl)cc1C(=O)N1CCc2[nH]cnc2C1c1ccc2ccccc2n1 (stereo in doubt) [Example 263, (R)-(3-chloro-1-methyl-1H-pyrazol-5-yl)(4-(quinolin-2-yl)-6,7-dihydro-1H-imidazo[4,5-c]pyridin-5(4H)-yl)methanone] |
| < 0.5 µM | O=C(CC1CC(F)C1)N1CCc2[nH]cnc2[C@H]1c1cn2ccccc2n1 (stereo partly drawn) [Example 254, (R)-2-(3-fluorocyclobutyl)-1-(4-(imidazo[1,2-a]pyridin-2-yl)-6,7-dihydro-1H-imidazo[4,5-c]pyridin-5(4H)-yl)ethanone] |
| < 0.5 µM | Cc1nc(-c2ccccn2)oc1C(=O)N1C[C@@H](C)c2[nH]cnc2[C@H]1c1cc2ccccc2cn1 [Example 406, [(4R,7R)-4-(3-isoquinolyl)-7-methyl-1,4,6,7-tetrahydroimidazo[4,5-c]pyridin-5-yl]-[4-methyl-2-(2-pyridyl)oxazol-5-yl]methanone] |
| 1 to 5 µM | Cc1nc([C@H](C)O)oc1C(=O)N1CCc2[nH]cnc2C1c1ccc2ccccc2n1 (stereo in doubt) [Example 99, (2-((S)-1-hydroxyethyl)-4-methyloxazol-5-yl)((R)-4-(quinolin-2-yl)-6,7-dihydro-1H-imidazo[4,5-c]pyridin-5(4H)-yl)methanone] |
| < 0.5 µM | Cn1nc(C(=O)N2CCc3[nH]cnc3[C@H]2c2cc3ccccc3cn2)c2ccccc21 [Example 360, (R)-(4-(isoquinolin-3-yl)-6,7-dihydro-1H-imidazo[4,5-c]pyridin-5(4H)-yl)(1-methyl-1H-indazol-3-yl)methanone] |
| 0.5 to 1 µM | Cn1ccc(-c2nnc(C(=O)N3CCc4[nH]cnc4[C@H]3c3ncc4ccccc4n3)o2)n1 [Example 165, (S)-(5-(1-methyl-1H-pyrazol-3-yl)-1,3,4-oxadiazol-2-yl)(4-(quinazolin-2-yl)-6,7-dihydro-1H-imidazo[4,5-c]pyridin-5(4H)-yl)methanone] |
| < 0.5 µM | O=C(c1cnn2c(Br)cccc12)N1CCc2[nH]cnc2[C@H]1c1cc2ccccc2cn1 [Example 355, (R)-(7-bromopyrazolo[1,5-a]pyridin-3-yl)(4-(isoquinolin-3-yl)-6,7-dihydro-1H-imidazo[4,5-c]pyridin-5(4H)-yl)methanone] |
| > 5 µM | Fc1ccc(-c2nnc(N3CCc4[nH]cnc4C3c3ccc4ccccc4n3)o2)cc1 (stereo in doubt) [Example 19, (S)-2-(4-fluorophenyl)-5-(4-(quinolin-2-yl)-6,7-dihydro-1H-imidazo[4,5-c]pyridin-5(4H)-yl)-1,3,4-oxadiazole] |
